The record followed here is patent US20130296311A1, “INHIBITORS OF HCV NS5A” (PRESIDIO PHARMACEUTICALS, INC., priority 2010, published 2013).

SMILES strings stand for the structures.

The first experiment relates to HCV 1b_Huh-Luc/Neo-ET cell line persistently expressing a bicistronic genotype 1b replicon in Huh 7 cells. Nature of the experiment: HCV replicon assay (luciferase readout, 72 h). Type of experiment: cell-based, HCV genotype 1b. The following applies: Hepatitis C virus, Huh-7, 72 h, read-out: Inhibition of HCV genotype 1b. How it is done: Biological activity of the compounds of the invention was determined using an HCV replicon assay. The HCV 1b_Huh-Luc/Neo-ET cell line persistently expressing a bicistronic genotype 1b replicon in Huh 7 cells was obtained from ReBLikon GMBH. This cell line was used to test compound inhibition using luciferase enzyme activity readout as a measurement of compound inhibition of replicon levels.
On Day 1 (the day after plating), each compound is added in triplicate to the cells. Plates incubated for 72 h prior to running the luciferase assay. Enzyme activity was measured using a Bright-Glo Kit (cat. number E2620) manufactured by Promega Corporation. The following equation was used to generate a percent control value for each compound.
% Control=(Average Compound Value/Average Control)*100
The EC50 value was determined using GraphPad Prism and the following equation:
Y=Bottom+(Top-Bottom)/(1+10̂((LogIC50−X)*HillSlope))
EC50 values of compounds are determined several times in the replicon assay.
Example compounds of the disclosed invention are illustrated in Tables 1-16 attached as appendices. The tables show inhibitory activity of many of the example compounds with respect to HCV 1b. […] The tables further provide mass spectrometry results for the synthesized example compounds.
In general terms: Replicon systems follow genome replication, usually without infectious particles.
With `CC(C)(C)OC(=O)N[C@@H](C(=O)N1CCC[C@H]1c1ncc(C#Cc2ccc(-c3ccc(-c4cnc([C@@H]5CCCN5C(=O)[C@H](NC(=O)OC(C)(C)C)c5ccccc5)[nH]4)cc3)cc2)[nH]1)c1ccccc1` [Compound 757], the EC50 was less than 1 nM.

Regarding `O=S(=O)(c1ccccc1)N1CCC[C@H]1c1ncc(-c2ccc(C#Cc3ccc4nc([C@@H]5CCCN5S(=O)(=O)c5ccccc5)[nH]c4c3)cc2)[nH]1` [Compound 1038], the EC50 was more than 1000 nM.

As for `COC(=O)N[C@@H](C)C(=O)N1CCC[C@H]1c1ncc(-c2ccc(C#Cc3ccc(-c4cnc([C@@H]5CCCN5C(=O)[C@H](C)NC(=O)OC)[nH]4)cc3)cc2)[nH]1` [Compound 962], the EC50 was less than 1 nM.

Turning to `CC(C)[C@@H](NC(=O)OC(C)(C)C)C(=O)N1CCC[C@H]1c1ncc(-c2ccc(C#Cc3ccc(-c4cnc([C@@H]5CCCN5C(=O)[C@H](NC(=O)OC(C)(C)C)C(C)C)[nH]4)cc3)cc2)[nH]1` [Compound 152], the EC50 lay in the range of 10 to 999 nM.

As to `C[C@@H](NC(=O)[C@@H]1CCCN1C(=O)[C@H](NC(=O)C1CC1)c1ccccc1)c1ccc(C#Cc2cnc([C@@H]3CCCN3C(=O)[C@H](NC(=O)C3CC3)c3ccccc3)[nH]2)cc1` [Compound 135], the EC50 is more than 1000 nM.

With `CC(C)(C)OC(=O)NCC(=O)N1CCC[C@H]1c1ncc(C#Cc2ccc(-c3cnc([C@@H]4CCCN4C(=O)CNC(=O)OC(C)(C)C)[nH]3)cc2)[nH]1` [Compound 103], the EC50 lay within 10 to 999 nM.

For `COC(=O)N[C@H](C(=O)N1CCC[C@H]1c1ncc(-c2ccc(C#Cc3ccc4c(c3)CCc3nc([C@@H]5CCCN5C(=O)[C@@H](NC(=O)OC)C(C)C)[nH]c3-4)cc2)[nH]1)C(C)C` [Compound 1094], the EC50 is less than 1 nM.

`CC(C)[C@H](NC(=O)C1CC1)C(=O)N1CCC[C@H]1c1ncc(-c2ccc(C#Cc3ccc(-c4cnc([C@@H]5CCCN5C(=O)[C@@H](NC(=O)C5CC5)C(C)C)[nH]4)cc3)cc2)[nH]1` [Compound 170]: the EC50 fell in the range of 1 to 9.9 nM.

`C[C@@H](c1ncc(-c2ccc(C#Cc3ccc(-c4cnc([C@@H]5CCCN5C(=O)[C@H](NC(=O)OC(C)(C)C)c5ccccc5)[nH]4)cc3)cc2)[nH]1)N(C)C(=O)[C@H](NC(=O)OC(C)(C)C)c1ccccc1` [Compound 265]: the EC50 is less than 1 nM.

Turning to `O=C(N[C@@H](C(=O)N1CCC[C@H]1c1ncc(-c2ccc(C#Cc3ccc(-c4cnc([C@@H]5CCCN5C(=O)[C@H](NC(=O)N5CCCC5)c5ccccc5)[nH]4)cc3)cc2)[nH]1)c1ccccc1)N1CCCC1` [Compound 249], the EC50 is less than 1 nM.

In the case of `CCC(CC)[C@H](NC(=O)OC)C(=O)N1CCC[C@H]1c1ncc(-c2ccc(C#Cc3ccc4nc([C@@H]5CCCN5C(=O)[C@@H](NC(=O)OC)C(CC)CC)[nH]c4c3)cc2)[nH]1` [Compound 1030], the EC50 is less than 1 nM.

For the compound `O=C(N[C@@H](C(=O)N1CCC[C@H]1c1ncc(-c2ccc(C#Cc3ccc(-c4cnc([C@@H]5CCCN5C(=O)[C@H](NC(=O)N5CC[C@@H](O)C5)c5ccccc5)[nH]4)cc3)cc2)[nH]1)c1ccccc1)N1CC[C@@H](O)C1` [Compound 252], the EC50 is less than 1 nM.

With `CC(C)[C@@H](NC(=O)OC(C)(C)C)C(=O)N1CCC[C@H]1c1ncc(C#Cc2ccc(-c3cnc([C@@H]4CCCN4C(=O)[C@H](NC(=O)OC(C)(C)C)C(C)C)[nH]3)cc2)[nH]1` [Compound 105], the EC50 lay within 10 to 999 nM.

`COC(=O)N[C@@H](C(=O)N1CCC[C@H]1c1ncc(-c2ccc(C#Cc3ccc(-c4cnc([C@@H]5CCCN5C(=O)[C@H](NC(=O)[C@H]5CCCO5)c5ccccc5)[nH]4)cc3)cc2)[nH]1)c1ccccc1` [Compound 201]: the EC50 is less than 1 nM.

Take `COC(=O)N[C@H](C(=O)N1CCC[C@H]1c1ncc(-c2ccc(C#Cc3ccc4nc([C@@H]5CCCN5C(=O)[C@@H](NC(=O)OC)C5CCOCC5)[nH]c4c3)cc2F)[nH]1)C1CCOCC1` [Compound 1070]: the EC50 is less than 1 nM.

On to `COC(=O)N[C@@H](C(=O)N1CCC[C@H]1c1ncc(-c2ccc(C#Cc3ccc(-c4cnc([C@@H]5CCCN5C(=O)[C@H](NC(=O)N5CCC[C@H]5C)c5ccccc5)[nH]4)cc3)cc2)[nH]1)c1ccccc1` [Compound 262], for which the EC50 was less than 1 nM.

Consider `CC(C)[C@@H](NC(=O)OC(C)(C)C)C(=O)N1CCC[C@H]1C(=O)NCCc1ccc(C#Cc2cnc([C@@H]3CCCN3C(=O)[C@H](NC(=O)OC(C)(C)C)C(C)C)[nH]2)cc1` [Compound 126], for which the EC50 fell in the range of 10 to 999 nM.

`CCN(CC)[C@@H](C(=O)N1CCC[C@H]1c1ncc(-c2ccc(C#Cc3ccc(-c4cnc([C@@H]5CCCN5C(=O)[C@H](NC(=O)OC)c5ccccc5)[nH]4)cc3)cc2)[nH]1)c1ccccc1` [Compound 175]: the EC50 was less than 1 nM.

For `CC[C@@H](C)[C@H](NC(=O)OC)C(=O)N1CCC[C@H]1c1ncc(-c2ccc(C#Cc3ccc4nc([C@@H]5CCCN5C(=O)[C@@H](NC(=O)OC)[C@H](C)CC)[nH]c4c3)cc2)[nH]1` [Compound 1024], the EC50 was less than 1 nM.

For `CC(C)(C)OC(=O)N[C@@H](C(=O)N1CCC[C@H]1c1ncc(C#Cc2ccc(-c3cnc([C@@H]4CCCN4C(=O)[C@H](NC(=O)OC(C)(C)C)c4ccccc4)[nH]3)cc2)[nH]1)c1ccccc1` [Compound 99], the EC50 was less than 1 nM.

In the case of `CC(C)[C@@H](NC(=O)C1CC1)C(=O)N1CCC[C@H]1c1ncc(-c2ccc(C#Cc3ccc(-c4cnc([C@@H]5CCCN5C(=O)[C@H](NC(=O)C5CC5)C(C)C)[nH]4)cc3)cc2)[nH]1` [Compound 155], the EC50 lay within 1 to 9.9 nM.

Regarding `O=C(N[C@@H](C(=O)N1CCC[C@H]1c1ncc(-c2ccc(C#Cc3ccc(-c4cnc([C@@H]5CCCN5C(=O)[C@H](NC(=O)N5CCOCC5)c5ccccc5)[nH]4)cc3)cc2)[nH]1)c1ccccc1)C1CC1` [Compound 239], the EC50 was less than 1 nM.

Regarding `COC(=O)N[C@H](C(=O)N1CCC[C@H]1c1ncc(-c2ccc(C#Cc3ccc(-c4cnc([C@@H]5CCCN5C(=O)[C@H](C(C)C)N5CCOC5=O)[nH]4)cc3)cc2)[nH]1)C(C)C` [Compound 996], the EC50 was less than 1 nM.

As for `COC(=O)N[C@@H](C(=O)N1CCC[C@H]1c1ncc(C#Cc2ccc(-c3ccc(-c4cnc([C@@H]5CCCN5C(=O)[C@@H](c5ccccc5)N5CCCCC5)[nH]4)cc3)cc2)[nH]1)c1ccccc1` [Compound 752], the EC50 was less than 1 nM.

Regarding `COC(=O)N[C@@H](C(=O)N1CCC[C@H]1c1ncc(-c2ccc(C#Cc3ccc(-c4cnc([C@@H]5CCCN5C(=O)[C@H](NC(=O)N5CCCC5)c5ccccc5)[nH]4)cc3)cc2)[nH]1)c1ccccc1` [Compound 243], the EC50 is less than 1 nM.

As for `COC(=O)N[C@H](C(=O)N1CCCC[C@H]1c1ncc(-c2ccc(C#Cc3ccc4nc([C@@H]5CCCN5C(=O)[C@@H](NC(=O)OC)C(C)C)[nH]c4c3)cc2)[nH]1)C(C)C` [Compound 1032], the EC50 was less than 1 nM.

In the case of `CNC(=O)N[C@@H](C(=O)N1CCC[C@H]1c1ncc(-c2ccc(C#Cc3ccc(-c4cnc([C@@H]5CCCN5C(=O)[C@H](NC(=O)NC)c5ccccc5)[nH]4)cc3)cc2)[nH]1)c1ccccc1` [Compound 162], the EC50 was less than 1 nM.

For the compound `COC(=O)N[C@H](C(=O)N1CCC[C@H]1c1ncc(-c2ccc(C#Cc3ccc4nc([C@@H]5CCCN5C(=O)[C@@H](NC(=O)OC)C(C)(C)C)[nH]c4c3)cc2)[nH]1)C(C)(C)C` [Compound 1041], the EC50 was less than 1 nM.

In the case of `COC(=O)N[C@@H](C(=O)N1CCC[C@H]1c1ncc(C#Cc2ccc3nc([C@@H]4CCCN4C(=O)[C@H](NC(=O)OC)c4ccccc4)[nH]c3c2)[nH]1)c1ccccc1` [Compound 700], the EC50 is less than 1 nM.

With `COC(=O)N[C@@H](C(=O)N1CCC[C@H]1c1ncc(-c2ccc(C#Cc3ccc(-c4cnc([C@@H]5CCCN5C(=O)N5CCOCC5)[nH]4)cc3)cc2)[nH]1)c1ccccc1` [Compound 198], the EC50 is less than 1 nM.

As to `C[C@H]1OC(=O)N(C)[C@@H]1C(=O)N1CCC[C@H]1c1ncc(-c2ccc(C#Cc3ccc(-c4cnc([C@@H]5CCCN5C(=O)[C@@H]5[C@@H](C)OC(=O)N5C)[nH]4)cc3)cc2)[nH]1` [Compound 980], the EC50 lay within 10 to 999 nM.

The same experiment, now with this note: Hepatitis C virus, Huh-7, read-out: Inhibition of HCV genotype 1b.
Turning to `[2H]C([2H])([2H])C([2H])(C([2H])([2H])[2H])[C@@]([2H])(NC(=O)OC)C(=O)N1CCC[C@H]1c1nc2ccc(C#Cc3ccc4c(ccc5nc([C@@H]6CCCN6C(=O)[C@@H](NC(=O)OC)C(C)C)[nH]c54)c3)cc2[nH]1` [Compound 1278], the EC50 was less than 1 nM.

Turning to `COC(=O)N[C@H](C(=O)N[C@@H](C)c1ncc(-c2ccc(C#Cc3ccc4nc([C@@H]5CCCN5C(=O)[C@@H](NC(=O)OC)C(C)C)[nH]c4c3)cc2)[nH]1)C(C)C` [Compound 1225], the EC50 was less than 1 nM.

For `COC(=O)NC(C(=O)N1CCC[C@H]1c1nc2ccc(C#Cc3ccc4cc(-c5cnc([C@@H]6CCCN6C(=O)[C@H](NC(=O)OC6CCOCC6)c6ccccc6)[nH]5)ccc4n3)cc2[nH]1)C(C)C` (stereo partly drawn) [Compound 1291], the EC50 is less than 1 nM.

With `COC(=O)N[C@@H](C(=O)N1CCN(C(C)=O)C[C@H]1c1ncc(-c2ccc(C#Cc3ccc4nc([C@@H]5CCCN5C(=O)[C@H](NC(=O)OC)c5ccccc5)[nH]c4c3)cc2)[nH]1)c1ccccc1` [Compound 1233], the EC50 was less than 1 nM.

As to `COC(=O)N[C@@H](C(=O)N1CCC[C@H]1c1ncc(-c2ccc(C#Cc3ccc(-c4cnc([C@@H]5CCCN5C(=O)[C@H](NC(=O)OC)c5ccccc5)[nH]4)cc3C(=O)OC)cc2)[nH]1)c1ccccc1` [Compound 1201], the EC50 was less than 1 nM.
